Measurements: US20190351012A1, “TARGETING OF INTERFERON-STIMULATED GENE EXPRESSION TO TREAT INTERFERONOPATHIES” (New York University, priority 2018, published 2019)
Entries after “also recorded” stand apart in the source; their conditions may differ.

Tests used:
BRD4 recruitment sites = experiment: Global ChIP-Seq for BRD4 recruitment; format: cell-based, human; details: combined IFN and TSA treatment
Experimental: To directly assess the effect of IFN and HDAC inhibition on BRD4 recruitment, we assayed the presence of BRD4 at ISG promoters by ChIP. BRD4 was recruited to three typical ISG promoters after 1 h of IFN stimulation. Importantly, this recruitment was abrogated by TSA, and, by JQ-1 (FIG. 5F). We also performed global ChIP-Seq for BRD4 recruitment.
ChIP-Seq libraries were made using the KAPA Hyper Prep kit (Roche, KK8504) using 25 ng of DNA per sample, according to the manufacturer's protocol for end repair and A-tailing. For adapter ligation, 8-nt multiplexing IDT (Integrated DNA Technologies) adapters (5 μM) were used. […] Libraries were sequenced on an Illumina HiSeq 4000 instrument, using a single read 50 protocol; 8 samples were pooled in one lane of a high output single read flow cell. […]
ChIP-Seq data analysis was carried out using the HiC-Bench pipeline (Lazaris et al., 2017, BMC Genomics 18:22). GenomicTools (Tsirigos et al., 2012, Bioinformatics 28:282-283), SAMtools (Li et al., 2009, Bioinformatics 25:2078-2079), DeepTools (Ramirez et al., 2016, Nucleic Acids Res. 44:W160-165), BEDTools (Quinlan and Hall, 2010, Bioinformatics 26:841-842), BigBed Tools (Kent et al., 2010, Bioinformatics 26:2204-2207), Picard Tools (https://broadinstitute.github.io/picard/), and R (https://www.R-project.org/) were used to analyze the sequenced reads and to check the quality of alignment. […]

BRD4 = experiment: Nuclear BRD4 distribution (soluble versus chromatin-bound) by differential salt extraction and western blot in HeLa cells; format: cell-based, human; details: western blot
Experimental: FIG. 5. BRD4 is required for ISG transcription. (A) HeLa cells were either left untreated or treated with IFN-α for 1 h in presence or absence of JQ-1 or HMBA. Using primers spanning intron-exon junctions, nuclear pre-mRNA for ISG54 and γ-actin were quantified by real-time RT-PCR and normalized to GAPDH mRNA. (B) Control and BRD4 KD cells were either left untreated or treated with IFN-α. ISG56 and BRD4 mRNA were quantified using real-time RT-PCR and normalized to GAPDH mRNA abundance. (C) HEK293T cells were transfected with pcDNA3 (Ctl) or Brd4 expression constructs along with a luciferase reporter driven by the ISG54 promoter. 24 h after transfection, cells were either left untreated or treated with IFN-α in the absence or presence of TSA before being assayed for luciferase activity (left panel). HEK293T cells were transfected with pcDNA3 (Ctl) or Brd4 expression constructs along with a luciferase reporter driven by the constitutive RSV promoter and assayed for luciferase activity after 36 h (right panel). (D) Hela cells were either left untreated or treated with IFN-α for 2 h in presence or absence of TSA or Anacardic acid (AA). Nuclear proteins were extracted as a soluble fraction and a chromatin bound fraction and analyzed by western blotting using anti-BRD4, H4-AcK5 and actin antibodies. […] (F) ChIP assays were performed with antibodies against BRD4 and recovered ISG56, Mx1 and IRF9 TSS spanning sequences were quantified by real-time PCR, normalized to input, and represented as fold enrichment over the untreated sample.
BRD4 is recruited to active promoters along with polymerase, and it associates with elongating polymerase to affect transcriptional elongation. […] Cells were treated with IFN in the presence or absence of TSA, and nuclear BRD4 was quantified in soluble versus chromatin-bound fractions by differential salt extraction (FIG. 5D). Most BRD4 was detected in the soluble nucleoplasm fraction in untreated or IFN-treated cells (FIG. 5D, compare lanes 1 and 2 with 5 and 6). […]
Nuclear extracts were prepared and analyzed by immunoblotting as follows. […]

For CC(/C=C/C(=O)NO)=C\[C@@H](C)C(=O)c1ccc(N(C)C)cc1 [TSA, Trichostatin A], the “sites of IFN-dependent BRD4 recruitment (366 detected) abrogated” value (BRD4 recruitment sites) was “all by 4 of which were abrogated”, the “soluble nuclear BRD4” value (BRD4; IFN-α 2 h) was “undetectable; also recorded: depletion” and the “histone acetylation (acetylated H4K5)” value (BRD4) was “large increase”.
